Laboratory results published in ChEMBL document CHEMBL5038660, “Computational and Structure-Based Development of High Potent Cell-Active Covalent Inhibitor Targeting the Peptidyl-Prolyl Isomerase NIMA-Interacting-1 (Pin1)” (J Med Chem, 2022).
pIC50: −log10 of the molar value. Each block holds one molecule with its values, some of them ahead of it. Calls of active or inactive are those of the source. The rule behind the calls is not given here.

Legend:
[1] = molecular target: T1, Peptidyl-prolyl cis-trans isomerase NIMA-interacting 1 (Homo sapiens, UniProt Q13526); assay: Inhibition of Pin1 in human MDA-MB-231 cells assessed as reduction in MCL-1 gene expression at 8 to 16 uM incubated for 24 hrs by qRT-PCR analysis; type: cell-based; settings: dose 8-16 µM
MDA-MB-468 [2] = assay: Inhibition of colony formation in human MDA-MB-468 cells at 0.63 to 10 uM incubated for 12 days with 48 hrs fresh compound replenishment by crystal violet staining based analysis; type: functional, cell-based; settings: dose 0.63-10 µM, time 12.0 day
[3] = molecular target: T1, Peptidyl-prolyl cis-trans isomerase NIMA-interacting 1; assay: Covalent binding affinity to Cys113 residue of N-terminal His6-tagged human Pin1 expressed in Escherichia coli BL21 (DE3) incubated for overnight followed by tryptic digestion for 16 hrs by HPLC-nESI MS/MS scan analysis
[4] = molecular target: T1, Peptidyl-prolyl cis-trans isomerase NIMA-interacting 1; assay: Displacement of 5-FITC-(Acp)-Bth-D-pThr-Pip-2-NaI-Q from N-terminal-GST-fused human Pin1 expressed in Escherichia coli BL21(DE3) at 20 to 50 uM incubated for 12 hrs by fluorescence polarization assay; settings: dose 20-50 µM
[5] = molecular target: T1, Peptidyl-prolyl cis-trans isomerase NIMA-interacting 1; assay: Covalent binding affinity to N-terminal His6-tagged human Pin1 expressed in Escherichia coli BL21 (DE3) assessed as increase in 292.1 Da molecular weight incubated for overnight by mass spectrometry
MDA-MB-231 [6] = assay: Inhibition of colony formation in human MDA-MB-231 cells at 0.63 to 10 uM incubated for 12 days with 48 hrs fresh compound replenishment by crystal violet staining based analysis; type: functional, cell-based; settings: dose 0.63-10 µM, time 12.0 day
MDA-MB-468 [7] = assay: Antiproliferative activity against human MDA-MB-468 cells assessed as reduction in cell viability incubated for 3 days by CellTiter-Glo luminescent assay; type: functional, cell-based; settings: MDA-MB-468, 72 h
[8] = molecular target: T1, Peptidyl-prolyl cis-trans isomerase NIMA-interacting 1; assay: Covalent binding affinity to N-terminal His6-tagged human Pin1 expressed in Escherichia coli BL21 (DE3) incubated for overnight by mass spectrometry
[9] = molecular target: T1, Peptidyl-prolyl cis-trans isomerase NIMA-interacting 1; assay: Inhibition of Pin1 in human MDA-MB-231 cells assessed as reduction in CCND1 gene expression at 8 to 16 uM incubated for 24 hrs by qRT-PCR analysis; type: cell-based; settings: dose 8-16 µM
[10] = molecular target: T1, Peptidyl-prolyl cis-trans isomerase NIMA-interacting 1; assay: Displacement of 5-FITC-(Acp)-Bth-D-pThr-Pip-2-NaI-Q from N-terminal-GST-fused human Pin1 expressed in Escherichia coli BL21(DE3) incubated for 12 hrs by fluorescence polarization assay
[11] = molecular target: T1, Peptidyl-prolyl cis-trans isomerase NIMA-interacting 1; assay: Inhibition of Pin1 in human MDA-MB-231 cells assessed as reduction in C-MYC gene expression at 8 to 16 uM incubated for 24 hrs by qRT-PCR analysis; type: cell-based; settings: dose 8-16 µM
MDA-MB-231 [12] = assay: Antiproliferative activity against human MDA-MB-231 cells assessed as reduction in cell viability incubated for 3 days by CellTiter-Glo luminescent assay; type: functional, cell-based; settings: MDA-MB-231, 72 h
[13] = molecular target: T1, Peptidyl-prolyl cis-trans isomerase NIMA-interacting 1; assay: Ratio of test compound IC50 to ZL-Pin01 IC50 for N-terminal-GST-fused human Pin1 expressed in Escherichia coli BL21(DE3) by fluorescence polarization assay
MDA-MB-468 [14] = assay: Inhibition of colony formation in human MDA-MB-468 cells at 0.25 to 4 uM incubated for 12 days with 48 hrs fresh compound replenishment by crystal violet staining based analysis; type: functional, cell-based; settings: dose 0.25-4 µM, time 12.0 day
MDA-MB-231 [15] = assay: Downregulation of cyclin D1 protein expression in human MDA-MB-231 cells transfected with PIN1 siRNA at 5 to 10 uM by western blot analysis; type: functional, cell-based; settings: dose 5-10 µM
MDA-MB-468 [16] = assay: Antiproliferative activity against human MDA-MB-468 cells assessed as reduction in cell viability incubated for 8 days with 48 hrs fresh compound replenishment by CellTiter-Glo luminescent assay; type: functional, cell-based; settings: time 8.0 day
[17] = molecular target: T1, Peptidyl-prolyl cis-trans isomerase NIMA-interacting 1; assay: Inhibition of Pin1 in human MDA-MB-231 cells assessed as reduction in C-MYC gene expression incubated for 24 hrs by qRT-PCR analysis; type: cell-based; settings: dose 4-8 µM
[18] = molecular target: T1, Peptidyl-prolyl cis-trans isomerase NIMA-interacting 1; assay: Displacement of 5-FITC-(Acp)-Bth-D-pThr-Pip-2-NaI-Q from N-terminal-GST-fused human Pin1 expressed in Escherichia coli BL21(DE3) assessed as maximum rate of inactivation incubated for 12 hrs by fluorescence polarization assay
[19] = molecular target: T1, Peptidyl-prolyl cis-trans isomerase NIMA-interacting 1; assay: Inhibition of Pin1 in human MDA-MB-231 cells assessed as reduction in CCND1 gene expression incubated for 24 hrs by qRT-PCR analysis; type: cell-based; settings: dose 4-8 µM
[20] = test system: Peptidyl-prolyl cis-trans isomerase NIMA-interacting 1 (Homo sapiens), Q13526 [C113A]; assay: Covalent binding affinity to N-terminal His6-tagged human Pin1 C113A mutant expressed in Escherichia coli BL21(DE3) at compound:protein ratio of 3:1 to 5:1 incubated for overnight by mass spectrometry
[21] = molecular target: T1, Peptidyl-prolyl cis-trans isomerase NIMA-interacting 1; assay: Inhibition of Pin1 in human MDA-MB-231 cells assessed as reduction in cyclin D1 level at 5 to 10 uM by western blot analysis; type: cell-based; settings: dose 5-10 µM
[22] = molecular target: T1, Peptidyl-prolyl cis-trans isomerase NIMA-interacting 1; assay: Inhibition of Pin1 in human MDA-MB-231 cells assessed as induction of Pin1 degradation incubated for 16 hrs by immunoblot analysis; type: cell-based; settings: dose 2.5-15 µM
MDA-MB-231 [23] = assay: Downregulation of MCL-1 protein expression in human MDA-MB-231 cells transfected with PIN1 siRNA at 5 to 10 uM by western blot analysis; type: functional, cell-based; settings: dose 5-10 µM
[24] = molecular target: T1, Peptidyl-prolyl cis-trans isomerase NIMA-interacting 1; assay: Covalent binding affinity to N-terminal His6-tagged human Pin1 expressed in Escherichia coli BL21 (DE3) assessed as increase in 418.16 Da molecular weight incubated for overnight by mass spectrometry
[25] = molecular target: T1, Peptidyl-prolyl cis-trans isomerase NIMA-interacting 1; assay: Inhibition of Pin1 in human MDA-MB-231 cells assessed as reduction in MCL-1 gene expression incubated for 24 hrs by qRT-PCR analysis; type: cell-based; settings: dose 4-8 µM
[26] = molecular target: T1, Peptidyl-prolyl cis-trans isomerase NIMA-interacting 1; assay: Inhibition of Pin1 in human MDA-MB-231 cells assessed as reduction in c-Myc level at 5 to 10 uM by western blot analysis; type: cell-based; settings: dose 5-10 µM
MDA-MB-231 [27] = assay: Downregulation of MCL-1 gene expression in PIN-1 knockout human MDA-MB-231 cells at 4 to 8 uM incubated for 24 hrs by qRT-PCR analysis; type: functional, cell-based; settings: dose 4-8 µM
[28] = test system: Peptidyl-prolyl cis-trans isomerase NIMA-interacting 1 (Homo sapiens), Q13526 [C113A]; assay: Displacement of 5-FITC-(Acp)-Bth-D-pThr-Pip-2-NaI-Q from human Pin1 C113A mutant expressed in Escherichia coli BL21(DE3) incubated for 12 hrs by fluorescence polarization assay
[29] = molecular target: T1, Peptidyl-prolyl cis-trans isomerase NIMA-interacting 1; assay: Displacement of 5-FITC-(Acp)-Bth-D-pThr-Pip-2-NaI-Q from N-terminal-GST-fused human Pin1 expressed in Escherichia coli BL21(DE3) assessed as Kinact/Ki ratio incubated for 12 hrs by fluorescence polarization assay
MDA-MB-231 [30] = assay: Downregulation of c-Myc protein expression in human MDA-MB-231 cells transfected with PIN1 siRNA at 5 to 10 uM by western blot analysis; type: functional, cell-based; settings: dose 5-10 µM
MDA-MB-231 [31] = assay: Inhibition of colony formation in human MDA-MB-231 cells at 0.25 to 4 uM incubated for 12 days with 48 hrs fresh compound replenishment by crystal violet staining based analysis; type: functional, cell-based; settings: dose 0.25-4 µM, time 12.0 day
Homo sapiens = species: Homo sapiens; assay: Displacement of 5-FITC-(Acp)-Bth-D-pThr-Pip-2-NaI-Q from human Pin1 C57A mutant expressed in Escherichia coli BL21(DE3) incubated for 12 hrs by fluorescence polarization assay
MDA-MB-231 [32] = assay: Downregulation of C-MYC gene expression in PIN-1 knockout human MDA-MB-231 cells at 4 to 8 uM incubated for 24 hrs by qRT-PCR analysis; type: functional, cell-based; settings: dose 4-8 µM
[33] = molecular target: T1, Peptidyl-prolyl cis-trans isomerase NIMA-interacting 1; assay: Inhibition of Pin1 in human MDA-MB-231 cells assessed as reduction in MCL-1 level at 5 to 10 uM by western blot analysis; type: cell-based; settings: dose 5-10 µM
MDA-MB-231 [34] = assay: Downregulation of CCND1 gene expression in PIN-1 knockout human MDA-MB-231 cells at 4 to 8 uM incubated for 24 hrs by qRT-PCR analysis; type: functional, cell-based; settings: dose 4-8 µM

Compound: O=C(CCl)N1CCC2(CC1)SCC(=O)N2Cc1ccco1
inhibition [1]: Active
inhibition (MDA-MB-468 [2]): Active
Activity [3]: Active
inhibition [4]: > 50%
Activity [5]: Active
inhibition (MDA-MB-231 [6]): Active
pIC50 (MDA-MB-468 [7]): 5.07
Activity [8]: 100%
inhibition [9]: Active
pIC50 [10]: 5.88
inhibition [11]: Active
pIC50 (MDA-MB-231 [12]): 4.89

Compound: Cc1cccc(N2C(=O)CSC23CCN(C(=O)CCl)CC3)c1
inhibition [4]: > 50%

Compound: Cc1ccc(N2C(=O)CSC23CCN(C(=O)CCl)CC3)cc1
inhibition [4]: > 50%

Compound: O=C(CCl)N1CCC2(CC1)SCC(=O)N2CCc1ccc(-c2ccccc2)o1
Ratio IC50 [13]: 0.8
pIC50 [10]: 5.97

Compound: O=C(CCl)N1CCC2(CC1)SCC(=O)N2Cc1ccc(-c2ccc(-c3ccccc3)cc2)o1
Ratio IC50 [13]: 1
pIC50 [10]: 5.88

Compound: O=C(CCl)N1CCC2(CC1)SCC(=O)N2Cc1ccc(Br)o1
Ratio IC50 [13]: 0.46
pIC50 [10]: 6.21

Compound: CC(=O)N1CCC2(CC1)SCC(=O)N2Cc1ccc(-c2cccc3ccccc23)o1
Ratio IC50 [13]: > 10
pIC50 [10]: < 4.00

Compound: CC(=O)N1CCC2(CC1)SCC(=O)N2Cc1ccco1
Ratio IC50 [13]: > 10
pIC50 [10]: < 4.00

Compound: O=C(CCl)N1CCC2(CC1)SCC(=O)N2Cc1ccccc1
inhibition [4]: > 50%

Compound: C=CC(=O)N1CCC2(CC1)SCC(=O)N2Cc1ccc(-c2ccccc2)o1
Ratio IC50 [13]: > 10
pIC50 [10]: < 4.00

Compound: O=C(CCl)N1CCC2(CC1)SCC(=O)N2Cc1ccc(Cl)o1
Ratio IC50 [13]: 0.42
pIC50 [10]: 6.25

Compound: O=C(CCl)N1CCC2(CC1)SCC(=O)N2c1ccc(Cl)cc1
inhibition [4]: > 50%

Compound: CC(Cl)C(=O)N1CCC2(CC1)SCC(=O)N2Cc1ccc(-c2ccccc2)o1 (centres undefined)
Ratio IC50 [13]: > 10
pIC50 [10]: < 4.00

Compound: O=C(CCl)N1CCC2(CC1)SCC(=O)N2Cc1ccc(-c2ccc(C(F)(F)F)cc2)o1
Ratio IC50 [13]: 0.54
pIC50 [10]: 6.14

Compound: N#Cc1ccc(-c2ccc(CN3C(=O)CSC34CCN(C(=O)CCl)CC4)o2)cc1
Ratio IC50 [13]: 0.33
pIC50 [10]: 6.36

More lines, main results first:

Ratio IC50 [13]: 0.05
inhibition [17]: Dose-Dependent Effect
Kinact [18]: 0.058 min⁻¹
inhibition [19]: Dose-Dependent Effect
Activity [20]: inactive
inhibition [21]: Active
inhibition [22]: Dose-Dependent Effect
Activity [24]: Active
inhibition [25]: Dose-Dependent Effect
inhibition [26]: Active
inhibition [28]: inactive
Ratio [29]: 27.1 M⁻¹ s⁻¹
Activity [3]: Active
pIC50 (MDA-MB-468 [7]): 5.72
Activity [8]: 100%
pIC50 [10]: 7.17
inhibition (Homo sapiens): Active
inhibition [33]: Active
pIC50 (MDA-MB-231 [12]): 5.55
Compound: O=C(CCl)N1CCC2(CC1)SCC(=O)N2Cc1ccc(-c2cccc3ccccc23)o1
inhibition (MDA-MB-468 [14]): Active
inhibition (MDA-MB-231 [15]): inactive
Activity (MDA-MB-468 [16]): Active
inhibition (MDA-MB-231 [23]): inactive
inhibition (MDA-MB-231 [27]): inactive
inhibition (MDA-MB-231 [30]): inactive
inhibition (MDA-MB-231 [31]): Active
inhibition (MDA-MB-231 [32]): inactive
inhibition (MDA-MB-231 [34]): inactive

Ratio IC50 [13]: 0.29
pIC50 [10]: 6.42
Compound: O=C(CCl)N1CCC2(CC1)SCC(=O)N2Cc1ccc(-c2ccc3ccccc3c2)o1

Ratio IC50 [13]: 0.2
pIC50 [10]: 6.57
Compound: Cc1ccc(-c2ccc(CN3C(=O)CSC34CCN(C(=O)CCl)CC4)o2)cc1

Ratio IC50 [13]: 0.19
pIC50 [10]: 6.60
Compound: COc1ccc(-c2ccc(CN3C(=O)CSC34CCN(C(=O)CCl)CC4)o2)cc1

Ratio IC50 [13]: 0.27
pIC50 [10]: 6.44
Compound: CS(=O)(=O)c1ccc(-c2ccc(CN3C(=O)CSC34CCN(C(=O)CCl)CC4)o2)cc1

Ratio IC50 [13]: 0.2
pIC50 [10]: 6.59
Compound: O=C(CCl)N1CCC2(CC1)SCC(=O)N2Cc1ccc(-c2ccccc2)o1
